Assays:
CYP2D6 = CYP2D6 (Homo sapiens, UniProt P10635); experiment: CYP inhibition CYP2D6; type: in vitro ADME
Excerpt: As the compound of example 2 has shown an impressive activity in the in vitro LasB inhibition assay, high selectivity over a broad spectrum of human enzymes and no signs of cytotoxicity in vitro, it has been subjected to a more advanced safety screening (Table 9).

[1] = Pharmacokinetic (PK) studies in mice; type: in vivo; settings: 10 mg/kg
Protocol: Moreover, the compound of example 2 was subjected to pharmacokinetic (PK) studies in mice (Table 10). Injected intravenously (i.v.) at a dose of 10 mg/kg, it is detectable in blood for 2 h.

MMP-8 = MMP-8 (Homo sapiens, UniProt P22894); experiment: Selectivity against human off-targets: MMP-8; type: biochemical; settings: read-out: Inhibition [%] MMP-8
MMP-8, sequence (P22894 101-467): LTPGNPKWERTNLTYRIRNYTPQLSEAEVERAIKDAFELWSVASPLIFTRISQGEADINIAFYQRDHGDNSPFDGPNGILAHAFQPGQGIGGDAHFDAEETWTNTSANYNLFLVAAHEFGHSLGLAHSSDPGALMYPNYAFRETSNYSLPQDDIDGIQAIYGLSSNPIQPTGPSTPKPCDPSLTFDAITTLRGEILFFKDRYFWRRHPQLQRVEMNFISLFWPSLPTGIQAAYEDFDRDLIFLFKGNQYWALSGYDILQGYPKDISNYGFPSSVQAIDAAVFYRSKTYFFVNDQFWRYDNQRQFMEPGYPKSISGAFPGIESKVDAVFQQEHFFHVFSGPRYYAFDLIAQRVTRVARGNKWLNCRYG
Excerpt: (§1) The inhibition of zinc-containing human enzymes is described frequently for LasB inhibitors and poses a serious difficulty in the development of selective compounds. Particularly, the inhibition of matrix metalloproteases (MMPs) should be avoided. To further investigate this issue, three derivatives (the compounds of examples 1, 5 and 8) have been tested for their selectivity against several human off-targets, including six MMPs, ADAM17 (TACE), HDAC-3 and HDAC-8 (Table 4). The selectivity of the compounds is particularly high for MMPs and HDACs, whereas the inhibition of ADAM17 was considerably stronger.

MMP-1 = target: T1, MMP-1 (Homo sapiens, UniProt P03956); experiment: Selectivity against human off-targets: MMP-1; type: biochemical; settings: read-out: Inhibition [%] MMP-1
T1 sequence (P03956 100-469): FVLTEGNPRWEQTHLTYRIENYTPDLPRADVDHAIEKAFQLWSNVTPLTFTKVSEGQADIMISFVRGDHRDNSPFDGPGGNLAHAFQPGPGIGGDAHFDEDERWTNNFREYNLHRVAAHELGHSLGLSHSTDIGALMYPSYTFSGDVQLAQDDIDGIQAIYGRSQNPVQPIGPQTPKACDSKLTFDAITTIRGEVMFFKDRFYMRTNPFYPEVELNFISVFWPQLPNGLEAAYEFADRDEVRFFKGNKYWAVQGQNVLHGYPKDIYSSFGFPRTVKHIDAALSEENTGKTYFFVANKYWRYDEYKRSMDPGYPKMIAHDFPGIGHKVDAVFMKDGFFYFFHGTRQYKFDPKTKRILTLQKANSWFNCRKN
Excerpt: as §1

ADAM17 (TACE) = ADAM17 (TACE) (Homo sapiens, UniProt P78536); experiment: Selectivity against human off-targets: ADAM17 (TACE); type: biochemical; settings: read-out: IC50 ADAM17 (TACE)
ADAM17 (TACE), sequence (P78536 215-824): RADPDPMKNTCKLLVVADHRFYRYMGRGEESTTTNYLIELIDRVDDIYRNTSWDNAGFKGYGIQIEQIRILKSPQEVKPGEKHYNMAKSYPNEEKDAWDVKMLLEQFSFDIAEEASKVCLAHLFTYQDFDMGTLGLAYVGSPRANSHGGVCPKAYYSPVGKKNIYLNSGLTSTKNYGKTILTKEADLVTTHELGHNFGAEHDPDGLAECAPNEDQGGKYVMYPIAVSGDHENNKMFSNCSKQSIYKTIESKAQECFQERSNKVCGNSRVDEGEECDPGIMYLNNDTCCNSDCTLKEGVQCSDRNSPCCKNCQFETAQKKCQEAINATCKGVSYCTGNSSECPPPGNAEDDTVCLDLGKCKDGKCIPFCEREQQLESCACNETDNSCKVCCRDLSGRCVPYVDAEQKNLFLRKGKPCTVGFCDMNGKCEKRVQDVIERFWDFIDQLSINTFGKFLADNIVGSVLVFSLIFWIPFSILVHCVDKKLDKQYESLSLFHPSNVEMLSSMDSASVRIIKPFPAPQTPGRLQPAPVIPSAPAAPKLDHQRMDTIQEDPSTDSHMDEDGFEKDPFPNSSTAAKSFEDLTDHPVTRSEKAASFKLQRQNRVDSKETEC

MMP-7 = target: T2, MMP-7 (Homo sapiens, UniProt P09237); experiment: Selectivity against human off-targets: MMP-7; type: biochemical; settings: read-out: Inhibition [%] MMP-7
T2 sequence (P09237 95-267): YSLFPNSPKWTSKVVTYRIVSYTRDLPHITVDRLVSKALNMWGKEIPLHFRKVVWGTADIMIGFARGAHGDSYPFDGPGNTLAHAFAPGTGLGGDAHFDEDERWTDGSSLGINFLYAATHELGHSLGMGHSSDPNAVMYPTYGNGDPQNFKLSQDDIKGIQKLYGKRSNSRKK
Excerpt: as §1

HDAC-3 = HDAC-3 (Homo sapiens, UniProt O15379); experiment: Selectivity against human off-targets: HDAC-3; type: biochemical; settings: read-out: IC50 HDAC-3
HDAC-3, sequence (O15379 whole entry): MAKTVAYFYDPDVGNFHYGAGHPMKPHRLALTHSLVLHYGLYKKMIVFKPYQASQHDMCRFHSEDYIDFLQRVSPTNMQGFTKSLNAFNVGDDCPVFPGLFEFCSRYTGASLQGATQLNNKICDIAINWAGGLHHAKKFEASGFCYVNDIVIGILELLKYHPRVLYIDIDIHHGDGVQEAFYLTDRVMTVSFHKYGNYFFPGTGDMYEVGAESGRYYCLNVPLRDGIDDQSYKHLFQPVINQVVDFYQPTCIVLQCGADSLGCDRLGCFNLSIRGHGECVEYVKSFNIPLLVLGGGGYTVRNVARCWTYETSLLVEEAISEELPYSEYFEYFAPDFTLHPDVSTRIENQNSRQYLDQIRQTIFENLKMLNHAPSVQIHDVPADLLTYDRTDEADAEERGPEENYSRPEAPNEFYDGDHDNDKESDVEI
HDAC-3, sequence (Q9Y618 395-489 partner limits assumed): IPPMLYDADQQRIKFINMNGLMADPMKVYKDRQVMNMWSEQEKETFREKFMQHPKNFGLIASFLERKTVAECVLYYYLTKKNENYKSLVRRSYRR
Excerpt: as §1

CYP2D6, sequence (P10635 whole entry): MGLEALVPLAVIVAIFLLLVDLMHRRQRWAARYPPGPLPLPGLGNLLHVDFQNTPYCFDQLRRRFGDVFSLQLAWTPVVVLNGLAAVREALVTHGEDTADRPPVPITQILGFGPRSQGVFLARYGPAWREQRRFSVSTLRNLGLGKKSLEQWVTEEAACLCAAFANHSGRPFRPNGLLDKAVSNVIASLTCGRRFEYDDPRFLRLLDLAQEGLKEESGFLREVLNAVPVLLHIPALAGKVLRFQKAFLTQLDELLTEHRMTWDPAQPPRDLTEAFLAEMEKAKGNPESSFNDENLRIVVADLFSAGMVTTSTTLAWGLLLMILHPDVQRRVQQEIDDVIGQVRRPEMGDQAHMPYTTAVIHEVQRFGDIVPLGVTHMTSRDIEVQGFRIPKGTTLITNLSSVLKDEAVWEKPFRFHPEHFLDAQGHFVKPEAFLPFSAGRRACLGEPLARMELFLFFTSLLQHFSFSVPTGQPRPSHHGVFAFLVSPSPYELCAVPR

**Q.** With `Cc1ccc(NC(=O)C(S)CC(C)C)cc1` (stereo not shown) [Example 2, 2-Mercapto-4-methyl-N-(p-tolyl)pentanamide] as the molecule, how does the IC50 (CYP2D6) read?
**A.** 22.3 µM

**Q.** What about the CL/F ([1]; i.v.) of the same molecule?
**A.** 505 ± 119 mL/min/kg

**Q.** What about the V/F ([1]; i.v.) of the same molecule?
**A.** 45.5 ± 2.8 L/kg

**Q.** And the “time detectable in blood” value ([1]; i.v.)?
**A.** 2 h

**Q.** What about the AUC(0-t) ([1]; mouse, blood, iv) of the same molecule?
**A.** 241 ± 22 ng·h/mL

**Q.** And the Cmax ([1]; mouse, blood, iv)?
**A.** 200 ng/mL

**Q.** And the half-life ([1]; mouse, blood, iv)?
**A.** 50 min

**Q.** What about the Tmax ([1]; mouse, blood, iv, first measuring point) of the same molecule?
**A.** 15 min

**Q.** What about the inhibition at 100 µM (MMP-8) of the same molecule?
**A.** < 10%

**Q.** And the inhibition at 100 µM (MMP-1)?
**A.** < 10%

**Q.** And the IC50 (ADAM17 (TACE))?
**A.** 4.5 ± 1.8 µM

**Q.** What about the inhibition at 100 µM (MMP-7) of the same molecule?
**A.** < 10%

**Q.** What about the IC50 (HDAC-3) of the same molecule?
**A.** > 100 µM

Source: patent US20230321123A1, “INHIBITORS OF PSEUDOMONAS AERUGINOSA VIRULENCE FACTOR LasB” (Helmholtz-Zentrum Für Infektionsforschung GmbH, priority 2020, published 2023)
